System: spheroids of human iPSC-derived neurons and human iPSC-derived astrocytes
Experiment: Calcium transient assay of neural cell-containing spheroids in the presence of a drug
Format: cell-based
Details: 4-AP final concentration 30 μM, 10-minute period immediately following the addition, spheroids cultured 7 weeks
Source text: Spheroids were produced using human iPSC-derived neurons and human iPSC-derived astrocytes, and the drug responsiveness was investigated. First, human iPSC-derived neurons (mixed neurons, manufactured by Elixirgen Scientific, Inc.) and human iPSC-derived astrocytes (Human iPS-derived Astrocytes (mature), manufactured by Xcell Science Inc.) were mixed so as to achieve cell numbers per well that satisfied the cell numbers indicated below in Table 3 for test numbers 3-1 and 3-2. Subsequently, each cell mixture was inoculated onto a spheroid production plate and cultured to produce a spheroid. […]
Subsequently, following culturing for 7 weeks, each of the spheroids was subjected to a calcium transient assay in the presence of a drug. […] In the calcium transient assays, excessive excitation of the neurons was detected as an increase in oscillation frequency or an elevated baseline.
Specifically, first, each spheroid was transferred to a measurement plate, a calcium-sensitive fluorescent dye (EarlyTox Cardiotoxicity Kit, manufactured by Molecular Devices, LLC) was added to the medium, and the mixture was incubated. Subsequently, 4-AP was added to the medium in an amount sufficient to achieve a final concentration of 30 μM, and fluorescence measurements were conducted at 0.6-second intervals for the 10-minute period immediately following the addition. […]

Structure (SMILES): Nc1ccncc1 [4-AP, 4-aminopyridine]
- change in the waveform of the oscillations (drug responsiveness) (test number 3-1, cell number ratio (neurons:astrocytes) 1:1): the expected type of change in the waveform of the oscillations was confirmed
- change in the waveform of the oscillations (drug responsiveness) (test number 3-2, cell number ratio (neurons:astrocytes) 4:1): the expected type of change in the waveform of the oscillations could not be confirmed
